Here are results for 104 compounds from PubChem BioAssay AID1996.

In brackets after ≈: the same amount, converted by molar mass. Bounds are passed on as bounds.

As a reminder, the kinetic solubility is solubility judged after dilution from a stock solution rather than from solid.

For the data set the following is noted: buffer; pH 7.4; 200.0 µM.
Compound `CN(C)C(=O)N1CCN(c2nc(-c3ccccc3)cs2)CC1` showed a kinetic solubility of 40.3 µg/mL (≈ 127 µM).
To `COc1ccc(NS(=O)(=O)c2ccc(C(=O)N3CCCCCC3)cc2)cc1` belongs above 58.3 µg/mL.
The result for `CC1=C(C(=O)Nc2cccc(C(=O)NC(C)C)c2)SCCO1` reads 47.9 µg/mL (≈ 149 µM).
The result for `CCOC(=O)C1CCN(S(=O)(=O)c2ccc3c4c(cccc24)C(=O)N3CC)CC1` reads 10.4 µg/mL (≈ 25 µM); that for `O=C(Nc1nonc1-c1ccc(Cl)cc1)c1ccco1`, above 43.5 µg/mL; that for `CCC(C(=O)NCc1ccc(C)cc1)c1ccccc1` (centres undefined), 20.2 µg/mL (≈ 75.6 µM).
Compound `Cc1ccc2oc(C(=O)NCc3ncc(C)[nH]3)c(C)c2c1` displayed a kinetic solubility of 38.7 µg/mL (≈ 137 µM).
The result for `Cc1[nH]c(=O)[nH]c(=O)c1/C=C/C(=O)O` reads above 29.4 µg/mL; that for `COCCn1c(SCC(=O)NC(=O)NC2CCCCC2)nc2ccccc2c1=O`, 4.6 µg/mL (≈ 11 µM).
To `O=C(NCC1COc2ccccc2O1)C1CCN(S(=O)(=O)c2ccccc2)CC1` (centres undefined) belongs 40.8 µg/mL (≈ 98 µM); to `O=C(CN1C(=O)C2CCCCC2C1=O)Nc1cccc(C(F)(F)F)c1` (centres undefined), above 53.1 µg/mL; to `CC(=O)Nc1ccc2nc(NC(=O)c3ccc([N+](=O)[O-])o3)sc2c1`, 4 µg/mL (≈ 11.5 µM).
To `COc1ccc(NS(=O)(=O)c2cn(C)cn2)cc1OC` belongs 32.9 µg/mL (≈ 111 µM); to `O=C(O)C(=O)O.O=C(c1ccco1)N1CCN(Cc2ccccc2F)CC1`, 33.9 µg/mL; to `O=C(CSc1nncn1-c1ccccc1)N1CCCC1`, above 43.3 µg/mL.
Regarding `O=C(/C=C/c1ccccc1)Nc1sc2c(c1C(=O)O)CCC2`, the solubility (kinetic) is above 47 µg/mL.
The result for `CN(C(=O)c1cccs1)C1(C)CCS(=O)(=O)C1` (centres undefined) reads above 41 µg/mL; that for `CSCC(=O)N1CCCC(CO)(CCCc2ccccc2)C1` (centres undefined), above 48.2 µg/mL; that for `Cc1ccc(OCC(=O)N2CCCCC2C)c([N+](=O)[O-])n1` (centres undefined), above 44 µg/mL.
To `COc1ccc2oc(=O)c(C(=O)Nc3ccccc3O)cc2c1` belongs 1 µg/mL (≈ 3.21 µM); to `O=C(COC(=O)c1cc[n+]([O-])cc1)Nc1ccc([N+](=O)[O-])cc1`, above 47.6 µg/mL.
`COC(=O)C1=C(C)N(Cc2ccccc2)C(=O)/C1=C\c1ccco1` came in with a solubility (kinetic) of 3.7 µg/mL (≈ 11.4 µM).
The result for `N#Cc1cccc(CN2C=NS(=O)(=O)c3ccccc32)c1` reads 42.2 µg/mL (≈ 142 µM); that for `C=CCNC(=O)CN1N=C(c2ccc(C)cc2)CCC1=O`, above 42.8 µg/mL; that for `CCOP(=O)(OCC)C(NC(=O)NC)C(N)=O` (centres undefined), 30.4 µg/mL (≈ 114 µM).
The result for `CN(C(=O)COC(=O)c1cn(C)c2ccccc12)C1CCCCC1` reads above 49.3 µg/mL.
`Cc1cc(C)cc(NC2=NCCCS2)c1` yielded a kinetic solubility of 32.1 µg/mL (≈ 146 µM).
To `Cc1cccc(C(=O)OC(C)CN2CCN(C)CC2)c1.Cl` (centres undefined) belongs above 46.9 µg/mL.
Consider `CCCCOc1ccc(C(=O)N2CCN(c3ncccn3)CC2)cc1`, for which the kinetic solubility is 12.2 µg/mL (≈ 35.8 µM).
The result for `CC(=O)Nc1c(-c2ccccc2)nc2cc(C)ccn12` reads 29.4 µg/mL (≈ 111 µM); that for `O=C1CCNc2c(Cl)cccc21`, 20.9 µg/mL (≈ 115 µM); that for `O=C(CCc1ccc(S(=O)(=O)N2CCOCC2)cc1)OCC(=O)c1ccccc1F`, 49.6 µg/mL (≈ 114 µM).
To `COc1cccc(NC(=O)Nc2ccc3nc(C)c(C)nc3c2)c1` belongs 0.9 µg/mL (≈ 2.79 µM); to `Cc1ccc(CNC(=O)CCCc2cn(C)c3ccccc23)cc1`, 0.4 µg/mL (≈ 1.25 µM).
Take `CN(CCc1cnn(C)c1)Cc1cn(C)nc1-c1ccccc1F`: the solubility (kinetic) is above 49.1 µg/mL.
To `COc1cc(/C=C/[N+](=O)[O-])ccc1OC(=O)c1cccnc1` belongs 3.7 µg/mL (≈ 12.3 µM); to `COc1cccc(/C=C(\C)C(=O)c2c(C)cc(C)[nH]c2=O)c1OC`, above 49.1 µg/mL.
To `OCc1ccccc1CN1CCCCCC1` belongs 28.8 µg/mL (≈ 131 µM); to `O=C(Cc1ccccc1)NC1CCSc2ccccc21` (centres undefined), 11.7 µg/mL (≈ 41.3 µM); to `CCn1c(C)nc2cc(C#N)ccc21`, above 27.8 µg/mL.
To `Cc1ccc(C(=O)Nc2ccc(NC(=O)c3ccco3)c(C)c2)cc1` belongs 2.8 µg/mL (≈ 8.37 µM); to `Cc1[nH]c2ccccc2c1C(=O)CSc1ccccn1`, 1.4 µg/mL (≈ 4.96 µM); to `Cc1ccc(NC(=S)N2CCN(c3ccccn3)CC2)cc1C`, 1.1 µg/mL (≈ 3.37 µM).
For `Cc1ccc(CN(CCO)CCO)cc1`, the kinetic solubility is 29.4 µg/mL (≈ 140 µM).
The result for `O=C(NC1CCOc2ccccc21)c1ccc(=O)[nH]c1` (centres undefined) reads above 40.5 µg/mL; that for `O=C(OCC(=O)N1CCC(Cc2ccccc2)CC1)c1cc(Br)ccc1O`, 6 µg/mL (≈ 13.9 µM); that for `COc1ccc(-c2csc(COC(=O)C(C)(C)C)n2)cc1`, below 0.7 µg/mL.
With `COc1cc([N+](=O)[O-])ccc1NC(=O)NCCCN1CCCC1=O`, the solubility (kinetic) was above 50.5 µg/mL.
To `O=C(NCCc1c[nH]c2ccccc12)c1ccc(F)cc1F` belongs above 45 µg/mL; to `O=C(Nc1ccc(NC(=O)c2cccs2)cc1)c1cccnc1`, 0.4 µg/mL (≈ 1.24 µM); to `CCCNC(=O)C12CCC(C)(c3nc4cc(C)c(C)cc4nc31)C2(C)C` (centres undefined), 32.2 µg/mL (≈ 91.6 µM).
`O=C(CS(=O)(=O)c1ccccc1)Nc1cccnc1`: the kinetic solubility was above 41.4 µg/mL.
To `Cc1ccc(Sc2c([N+](=O)[O-])c(=O)n(C)c3ccccc23)cc1` belongs below 0.3 µg/mL; to `CCN1CCN(C2CC(=O)NC2=O)CC1` (centres undefined), above 31.7 µg/mL; to `Cc1ccnc(Nc2nc(-c3ccc(O)cc3)cs2)c1`, 3.9 µg/mL (≈ 13.8 µM).
Turning to `Cc1ccc(S(=O)(=O)NCCC(=O)NC2CC2)cc1`, the solubility (kinetic) was above 42.4 µg/mL.
To `CN(C)S(=O)(=O)c1cccc(NC(=O)c2c[nH]c3ccccc23)c1` belongs 42.6 µg/mL (≈ 124 µM).
`CCC(C)[C@H](NC(=O)NCCCOC(C)C)C(=O)OC` (some centres undefined) came in with a kinetic solubility above 43.3 µg/mL.
Turning to `C[C@H](NC(=O)c1ccco1)C(=O)N1CCCC1`, the solubility (kinetic) is above 35.4 µg/mL.
For the compound `O=c1[nH]cc(-c2ccc(Br)cc2)n1Cc1ccccc1`, the solubility (kinetic) is 1.6 µg/mL (≈ 4.86 µM).
The result for `O=C(Nc1ccc(F)cc1)NC1CCCCCCC1` reads 1.6 µg/mL (≈ 6.05 µM); that for `COc1ccc(C(=O)OCC(=O)NCCN2C(=O)CSC2=O)cc1[N+](=O)[O-]`, above 59.6 µg/mL.
`Cc1ccccc1N=Cc1cccc(O)c1O`: the solubility (kinetic) was determined as 20.9 µg/mL (≈ 92 µM).
The result for `CC(=O)C1=C(C)OC(N)=C(C#N)C1c1cc([N+](=O)[O-])ccc1Cl` (centres undefined) reads 41.9 µg/mL (≈ 126 µM); that for `O=C(Cc1ccccc1)Nc1ccc2c(c1)OC1(CCCC1)O2`, 16.4 µg/mL (≈ 53 µM); that for `CCCc1c(C)nc2c(OC)cccc2c1SCC(=O)O`, 42.5 µg/mL (≈ 139 µM).
To `O=[N+]([O-])c1ccccc1/C=C/CN1CCCC(CO)C1` (centres undefined) belongs 33.2 µg/mL (≈ 120 µM); to `O=C(O)CN1CCCCCC1=O`, above 25.7 µg/mL; to `Cc1csc(NC(=O)c2ccc(COc3ccccc3)o2)n1`, 3.3 µg/mL (≈ 10.5 µM).
To `Cc1cc(C(=O)Nc2ccncc2)c(C)o1` belongs above 32.4 µg/mL; to `O=S(=O)(NCc1cccs1)c1ccc(Cl)s1`, 40.5 µg/mL (≈ 138 µM).
`Clc1ccc2nc(-c3ccc(Cl)nc3)[nH]c2c1`: the kinetic solubility was 13.5 µg/mL (≈ 51.1 µM). Compared with the last compound, the solubility kinetic is about 3-fold lower.
To `Fc1ccc(OCCOCCN2CCCC2)cc1` belongs 28 µg/mL (≈ 111 µM); to `CCCc1ccc(NS(=O)(=O)c2c(C)oc(C)c2C(=O)OC)cc1`, 7.4 µg/mL (≈ 21.1 µM).
On to `COc1cc(OC)cc(C(=O)Nc2cccc3cccnc23)c1`, for which the solubility (kinetic) was below 0.3 µg/mL.
Consider `CC(=O)Oc1ccc(N(C(C)=O)S(=O)(=O)c2ccc(C)cc2C)c2ccccc12`, for which the kinetic solubility was 4.3 µg/mL (≈ 10.5 µM).
`Cn1c2ccccc2n2c(=O)cc(-c3ccccc3)c(C#N)c12` had a solubility (kinetic) below 0.2 µg/mL.
The result for `Cc1cccc(CN2CCSCC2)c1` reads 7 µg/mL (≈ 33.8 µM).
The result for `COc1cc(CC(=O)OCC(=O)N2CCN(C(=O)c3ccco3)CC2)cc(OC)c1OC` reads above 67 µg/mL.
To `Cc1cc(SCNC(=O)c2ccccc2)nc(C(C)C)n1` belongs above 45.2 µg/mL; to `COC(=O)c1csc(S(=O)(=O)N2CCCCC2)c1OC`, above 47.9 µg/mL; to `O=C(C[n+]1ccc2ccccc2c1)c1ccccc1.[Br-]`, above 49.2 µg/mL.
Take `COc1ccc2oc(=O)c(C(=O)NCc3ccc(C)cc3)cc2c1`: the kinetic solubility is below 0.7 µg/mL.
The result for `Cc1ccc(C(=O)Nc2ccc(S(=O)(=O)N3CCOCC3)cc2)cc1Br` reads 0.5 µg/mL (≈ 1.14 µM); that for `CN(C)c1nc(C(=O)O)nc(N2CCOCC2)n1`, 36.2 µg/mL (≈ 143 µM).
To `CN1C(C(=O)Nc2ncccn2)=C(O)c2ccccc2S1(=O)=O` belongs above 49.8 µg/mL; to `Cc1ccc(C(=O)Nc2ccccc2N2CCCCC2)o1`, 2.8 µg/mL (≈ 9.85 µM).
The result for `CC(=O)c1cccc(N=Cc2c(O)ccc3ccccc23)c1` reads 2.3 µg/mL (≈ 7.95 µM); that for `CC1CCN(C(=O)COC(=O)c2cc3ccccc3oc2=O)CC1`, above 49.4 µg/mL.
The compound `Cc1ccc(OCCC(=O)OCC(=O)NC2CCCC(C)C2C)cc1` (centres undefined) displayed a solubility (kinetic) of 15.9 µg/mL (≈ 45.8 µM).
The result for `NS(=O)(=O)c1ccc(CCNC(=O)CN2C(=O)NC(c3ccccc3)(c3ccccc3)C2=O)cc1` reads above 73.9 µg/mL.
To `Cl.Nc1cnccc1Oc1cccc(C(F)(F)F)c1` belongs above 43.6 µg/mL.
The result for `CCOc1ccc(NC(=O)NC2CCCCCCC2)cc1` reads 0.9 µg/mL (≈ 3.1 µM); that for `N#C/C(=C(/O)c1ccc(Cl)cc1)c1nc2ccccc2[nH]1`, below 0.2 µg/mL.
With `CC(=O)Nc1cccc(OCC(=O)Nc2sccc2C(N)=O)c1`, the solubility (kinetic) amounted to 4.9 µg/mL (≈ 14.7 µM).
`CN1CCN(CCC(=O)Nc2cccc(Br)c2)CC1` displayed a kinetic solubility of 42.6 µg/mL (≈ 131 µM). Compared with the last compound, the solubility kinetic is about 8.7-fold higher.
On to `COc1cc(S(=O)(=O)N2CCOCC2)ccc1NC(=O)COC(=O)c1ccc(Cl)nc1`, for which the kinetic solubility was found to be 6.4 µg/mL (≈ 13.6 µM).
The result for `CC(C)CCC1(CCNC(=O)c2cccs2)CCOC(C)(C)C1` (centres undefined) reads 22.4 µg/mL (≈ 66.4 µM); that for `O=C(NC(=S)NCc1ccc(Cl)cc1)c1ccco1`, 10.6 µg/mL (≈ 36 µM); that for `CCOc1ccccc1NC(=O)c1ccccc1N(C)S(=O)(=O)c1ccc(C)cc1`, 3.2 µg/mL (≈ 7.54 µM).
The result for `CCCCCCCNc1cccc(C)c1` reads below 0.4 µg/mL.
The result for `CC(O)CN1CC(O)=C(c2nc3ccccc3s2)C1=N` (centres undefined) reads 17.8 µg/mL (≈ 61.5 µM); that for `O=C(NCCNC(=O)c1ccccc1F)c1ccccn1`, above 43.1 µg/mL; that for `CN1CCC2(CC1)N=C(c1ccc(F)cc1)C(=S)N2`, 39.8 µg/mL (≈ 143 µM).
